The source of these data is patent US20070059242A1, “METHODS TO IDENTIFY THERAPEUTIC AGENTS” (priority 2005, published 2007).

One series concerns J774A.1 macrophages. The series can be described thus: Uptake and localization in macrophages by fluorescence microscopy. The class given is cell-based, murine. The following applies: 50 μM dansyl derivative, 5 min to 1 h; not complexed with LDL. The procedure:
J774A.1 cells were plated in 8-well chambered slides (Nalge Nunc International). Cells were gently washed twice with PBS, pH 7.4 before 5 min or 1 h exposure to 50 μM dansyl derivative of cholesterol ozonation product 5d or 5e, dansyl cholesterol derivative 9c or 9d, or dansyl hydrazine diluted in media without FCS (0.05% v/v final DMSO concentration). [drawing 28] Media was removed by aspiration and cells were fixed immediately in 95% ice cold methanol for 5 min. Cells were mounted in glycerol containing Antifade reagent (Molecular Probes). Fluorescence images were documented using DeltaVision Deconvolution microscope (API, Issaquah WA) equipped with a Photometrics CH350L liquid cooled CCD camera attached to an Olympus IX—70 inverted microscope. […] All images were deconvolved using constrained iterative algorithms (10 iterations) of DeltaVision software (softWoRx, v2.5). The deconvolved images were subsequently processed using softWoRx, v2.5.
In some experiments, murine macrophage RAW 264.7 (ECACC 91062702) cells were grown in RPMI (Gibco) with 10% FCS at 37° C. with 5% CO2. For fluorescence imaging, cells were incubated on cover slips in 6-well chambered plates (Costar) for 12 h, gently washed 3 times in PBS at pH 7.4, and incubated with 50 μM dansyl derivative of cholesterol ozonation product 5d or 5e, dansyl cholesterol derivative 9c or 9d, in RPMI with 10% FCS for 5, 15, 30, and 60 min. A solution of the dansyl derivative was then added in DMSO [final DMSO, 0.05% (v/v)]. Media was removed by aspiration, and cells were washed twice with PBS, followed by fixing in paraformaldehyde (3.7% in PBS) for 10 min. Cover slips were mounted in MOWIOL 4-88 (Calbiochem). Microscopy was performed using an inverted Zeiss Axioscope 2 Plus fluorescence microscope, and images were obtained with a Zeiss Axiocam digital camera using Axiovision software (version 3.1). The data were collected using a 63× oil immersion lens and DAPI filter (excitation 360/emission 460), and images were processed with Axiovision software and Adobe software (Photoshop 6.0).

For another series, the system named is leukocyte cell lines. The series can be described thus: Cytotoxicity to leukocyte cell lines (similar procedures). Format: cell-based. The procedure:
(§1) Cytotoxicity assays. WI-L2 human B-lymphocyte line, HAAE-1 human abdominal aortic endothelial line, MH-S murine alveolar macrophage line, and J774A.1 murine tissue macrophage line were obtained from the ATCC. Human aortic endothelial cells (HAEC) and human vascular smooth muscle cells (VSMS) were obtained from Cambrex Bio Science. Jurkat E6-1T-lymphocytes were kindly provided by Dr. J. Kaye (The Scripps Research Institute). Cells were cultured in ATCC-recommended media with 10% fetal calf serum. Cells were incubated in a controlled atmosphere at 37° C., with 5 or 7% CO2. For lactate dehydrogenase (LDH) release assays, adherent cells were harvested either by addition of 0.05% trypsin/EDTA or by scraping. The cells obtained were seeded onto 96-well microtiter plates (25,000 cells/well) and allowed to recover for 24-48 h. Cells were washed gently and media replaced with fresh media containing 5% fetal calf serum. […] Cytotoxicity was then determined by measuring lactate dehydrogenase (LDH) release from cells in culture. […] 100% Cytotoxicity was defined as the maximum amount of LDH released by dead cells as shown by trypan blue exclusion, or the highest amount of LDH detected upon lysis of cells by 0.9% Triton X-100. The IC50 values were determined by comparison of the raw duplicate data for concentration versus cytotoxicity (%) to non-linear regression analysis (Hill plot) using Graphpad v3.0 software for Macintosh.

The test system of another series is THP-1 monocytes. Nature of the series: Monocyte morphology changes (differentiation into macrophages). The class given is cell-based, human. The note with it: 12.5 or 25 μM, 7 days. On the procedure: THP-1 monocytes in suspension were plated in 8-well chambered slides. […] Media containing appropriate treatment compounds was replaced after 4 days. […]
Series [1] deals with WI-L2 human B-lymphocyte line. Nature of the series: LDH release cytotoxicity assay, WI-L2. The note with it: B-cell (WI-L2) cell line, concentration range of FIG. 6A. The class given is cell-based. On the procedure:
as §1
The following cell lines were employed in this study: a human B-lymphocyte (WI-L2) described in Levy et al., Cancer 22, 517 (1968); a T-lymphocyte cell line (Jurkat E6.1) described in Weiss et al., J. Immunol. 133, 123 (1984); a vascular smooth muscle cell line (VSMC) and an abdominal aorta endothelial (HAEC) cell line described in Folkman et al., Proc. Natl. Acad. Sci. U.S.A. 76, 5217 (1979); a murine tissue macrophage (J774A.1) described in Ralph et al., J. Exp. Med. 143, 1528 (1976); and an alveolar macrophage cell line (MH-S) described in Mbawuike et al., J. Leukoc. Biol. 46, 119 (1989).

The subject of series [2] is T-lymphocyte cell line (Jurkat E6.1). The series can be described thus: LDH release cytotoxicity assay, Jurkat. Format: cell-based. The note with it: T-cell (Jurkat) cell line, concentration range of FIG. 6B. The procedure: as §1, with “h.” for “h. Cells were washed gently and media replaced with fresh media containing 5% fetal calf serum.”, “Macintosh. […]” for “Macintosh.”
For orientation: LDH leaks from cells whose membrane has failed.

The next series relates to VCAM-1. The series can be described thus: Endothelial adhesion molecule expression ELISA, VCAM-1. Format: cell-based, human. The following applies: HAAE-1, not complexed with LDL. On the procedure: (§2) Endothelial cell surface adhesion molecule expression was measured by ELISA, using anti-human CD54 (ICAM-1), CD106 (VCAM-1) and CD62E (E-Selectin) antibodies (Leinco Technologies, Inc., St. Louis, Mo.). The ELISA method was modified from previously described procedures.
(§3) Cells were then incubated with antibodies to VCAM-1, E-selectin, or ICAM-1 diluted 1:400 in PBS containing 5% FCS at 37° C. for 30 min. Wells were washed two times with PBS, then incubated with horseradish peroxidase (HRP)-conjugated goat anti-mouse IgG (Southern Biotechnology Associates, Birmingham, Ala., USA) in PBS/5% FCS at 37° C. for 30 min. The wells were washed four times with PBS, then incubated with H2O2/3,3′,5,5′-tetramethyl-benzidine peroxidase substrate (Pierce Chemical, Rockford, Ill., USA) for 30 min in the dark. The reaction was stopped by adding 25 μl of 8 N H2SO4, and the plates read on a microplate reader, blanking on wells stained with only secondary antibody. Each assay was performed in triplicate and the data are reported as the mean±SEM as a percentage of the expression level of the vehicle. To study the effect of cholesterol ozonation product 5a concentration (5-50 μM) on E-selectin expression, the assay was performed in an identical fashion as described above, with each point being the mean±SEM of at least duplicate measurements.
In general terms: In an ELISA, binding on a coated surface is turned into a signal by an enzyme label.

Another series relates to ICAM-1. The series can be described thus: Endothelial adhesion molecule expression ELISA, ICAM-1. The class given is cell-based, human. The following applies: HAAE-1, not complexed with LDL. On the procedure:
as §2, §3

The test system of the next series is E-selectin. The series can be described thus: Endothelial adhesion molecule expression ELISA, E-selectin. Format: cell-based, human. The following applies: HAAE-1, not complexed with LDL. On the procedure: as §2, §3

SMILES strings stand for the structures.

For `C[C@H](CCCC(=O)NS(=O)(=O)c1cccc2c(N(C)C)cccc12)[C@H]1CCC2C3C(CC[C@@]21C)C1(C)CC[C@H](O)CC1(O)[C@@H]3C=O` (stereo partly drawn) [5e], the “uptake and localization in macrophages” value in the series with J774A.1 macrophages is recorded as “initial punctate cytosolic accumulation”.

Consider `CC(C)CCC[C@@H](C)[C@H]1CCC2C(CC=O)C([C@@]3(C)CCC=CC3=O)CC[C@@]21C` (stereo partly drawn) [6a, 5-Oxo-5,6-secocholest-3-en-6-al], for which the “cytotoxic to leukocyte cell lines” value in the series with leukocyte cell lines is listed as “cytotoxic”.

For the compound `CC(C)CCC[C@@H](C)[C@H]1CC[C@H]2[C@@H]3C(=O)C=C4C[C@@H](O)CC[C@]4(C)[C@H]3CC[C@]12C` [7-KC, 7-ketocholesterol, reference compound], the “THP-1 cell adherence (differentiation into macrophages)” value in the series with THP-1 monocytes is “began to adhere after 4 days”.

With `CC(C)CCC[C@@H](C)[C@H]1CCC2C3C(CC[C@@]21C)[C@@]1(C)CCC=C[C@@]1(O)[C@@H]3C=O` (stereo partly drawn) [7a, 5β-Hydroxy-B-norcholest-3-ene-6β-carboxaldehyde], the “cytotoxic to leukocyte cell lines” value with leukocyte cell lines is “cytotoxic”.

Consider `CC(C)CCC[C@@H](C)[C@H]1CCC2C3C(CC[C@@]21C)[C@@]1(C)CCC=C[C@@]1(O)[C@@H]3CO` (stereo partly drawn) [7c], for which the “cytotoxic to leukocyte cell lines” value with leukocyte cell lines is recorded as “cytotoxic”.

Turning to `C[C@H](CCCC(=O)NS(=O)(=O)c1cccc2c(N(C)C)cccc12)[C@H]1CCC2C3CC=C4C[C@@H](O)CCC4(C)C3CC[C@@]21C` (stereo partly drawn) [9d, reference compound], the “uptake and localization in macrophages” value in the series on J774A.1 macrophages is given as “minimal fluorescence”.

For `CC(C)CCC[C@@H](C)[C@H]1CCC2[C@H](CC(=O)O)C([C@@]3(C)CC[C@H](O)CC3=O)CC[C@@]21C` (stereo partly drawn) [10a], in the series on leukocyte cell lines, the “cytotoxic to leukocyte cell lines” value was “cytotoxic”.

For `CC(C)CCC[C@@H](C)[C@H]1CCC2[C@H](CC=O)C([C@@]3(C)CCCCC(=O)O3)CC[C@@]21C` (stereo partly drawn) [11a], in the series with leukocyte cell lines, the “cytotoxic to leukocyte cell lines” value is recorded as “cytotoxic”.

On to `CC(C)CCC[C@@H](C)[C@H]1CCC2C3C(C=O)=C4C=CCC[C@]4(C)C3CC[C@@]21C` (stereo partly drawn) [12a, B-norcholest-3,5-diene-6-carboxaldehyde], for which the “cytotoxic to leukocyte cell lines” value with leukocyte cell lines is given as “cytotoxic”.

With `CC(C)CCC[C@@H](C)[C@H]1CC[C@H]2[C@@H]3CC=C4C[C@@H](O)CC[C@]4(C)[C@H]3CC[C@]12C` [compound 3, cholesterol, reference compound], the cytotoxicity result in series [1] and in series [2] was “No cytotoxicity” in each case. Also, the “THP-1 cell adherence (differentiation into macrophages)” value in the series on THP-1 monocytes is recorded as “induced no cell adherence”. For the same compound, the “integrin (VCAM-1) expression” value with VCAM-1 was “no effects”. The “integrin (ICAM-1) expression” value with ICAM-1 is recorded as “no effects”. Moreover, the “selectin (E-selectin) expression” value in the series with E-selectin was “no effects”.
